Experimental findings from patent US20240269304A1, “BCL-XL INHIBITOR ANTIBODY-DRUG CONJUGATES AND METHODS OF USE THEREOF” (Novartis AG, priority 2020, published 2024) are described below.

The subject of the assay is H1650 cells. The assay is described as follows: CellTiterGlo (CTG) cell viability, 3D, 120 h, H1650 (Example 8). Conditions: Homo sapiens, NCI-H1650, H1650 3D. The format is cell-based, human. The protocol: H1650 cells were cultivated in RPMI supplemented with 10% heat inactivated fetal bovine serum, penicillin (100 IU/ml), streptomycin (100 μg/ml) and L-glutamine (2 mM). Cell lines were cultured at 37° C. in a humidified atmosphere containing 5% 002. Cells were seeded in 96 microwell round bottom plates (96 microwell Low attachment plates , Costar reference 7007) and exposed to the payloads or ADCs for 120 h (serially diluted; 9 concentrations each, duplicates). Effects of payloads or ADCs on cell viability were assessed after 5 days of incubation at 37° C./5% CO2 by quantification of cellular ATP levels using CellTiterGlo at 75 μL reagent/well. All the conditions were tested in duplicates. Luminescence was quantified on a multipurpose plate reader. IC50S were calculated using standard four-parametric curve fitting. […] Each experiment was performed at least twice, with results being reproducible.
A general note: ATP-based viability assays read luminescence as a measure of living cells.

The mark [1] stands for this setting: experiment n1, read-out: H1650 3D CTG IC50 n1.
The mark [2] stands for this setting: experiment n2, read-out: H1650 3D CTG IC50 n2.
Setting [3] is: mean of n1 and n2, read-out: H1650 3D CTG IC50 Mean of n1 and n2.

Like-named read-outs stand apart in the source and are kept apart here.

Consider `Cc1c(Nc2nc3ccccc3s2)nnc2c1CCCN2c1ccc(-c2cnn(C[C@]34C[C@@]5(C)C[C@](C)(C[C@](CCCN6CCCC6)(C5)C3)C4)c2C)c(C(=O)O)n1` [P41, 6-[3-(1,3-benzothiazol-2-ylamino)-4-methyl-6,7-dihydro-5H-pyrido[2,3-c]pyridazin-8-yl]-3-[1-[[3,5-dimethyl-7-(3-pyrrolidin-1-ylpropyl)-1-adamantyl]methyl]-5-methyl-pyrazol-4-yl]pyridine-2-carboxylic acid], for which the 50% inhibitory concentration (IC50) (usually the concentration at which inhibition is half-maximal) was found to be 3.3 nM under setting [1], 2.1 nM under setting [2] and 2.7 nM under setting [3].

In the case of `Cc1c(Nc2nc3ccccc3s2)nnc2c1CCCN2c1ccc(-c2cnn(CC34CC5(C)CC(C)(C3)CC(OCCN(C)CCCO)(C5)C4)c2C)c(C(=O)O)n1` [P62, 6-[3-(1,3-benzothiazol-2-ylamino)-4-methyl-6,7-dihydro-5H-pyrido[2,3-c]pyridazin-8-yl]-3-[1-[[3-[2-[3-hydroxypropyl(methyl)amino]ethoxy]-5,7-dimethyl-1-adamantyl]methyl]-5-methyl-pyrazol-4-yl]pyridine-2-carboxylic acid], the IC50 runs as follows: under setting [1], 0.52 nM; under setting [3], 0.52 nM.

On to `Cc1c(Nc2nc3ccccc3s2)nnc2c1CCCN2c1ccc(-c2cnn(CC34CC5(C)CC(C)(C3)CC(OCCN(C)CC(=O)O)(C5)C4)c2C)c(C(=O)O)n1` [P48, 6-[3-(1,3-benzothiazol-2-ylamino)-4-methyl-6,7-dihydro-5H-pyrido[2,3-c]pyridazin-8-yl]-3-[1-[[3-[2-[carboxymethyl(methyl)amino]ethoxy]-5,7-dimethyl-1-adamantyl]methyl]-5-methyl-pyrazol-4-yl]pyridine-2-carboxylic acid], for which the half-maximal inhibitory concentration (IC50) was 2.27 nM under setting [1], 2.79 nM under setting [2] and 2.53 nM under setting [3].

On to `Cc1c(Nc2nc3ccccc3s2)nnc2c1CCCN2c1nc(C(=O)O)c(CCCOc2ccc(C#CCNCCN(C)C)cc2F)s1` [P12, 2-[3-(1,3-Benzothiazol-2-ylamino)-4-methyl-6,7-dihydro-5H-pyrido[2,3-c]pyridazin-8-yl]-5-[3-[4-[3-[2-(dimethylamino)ethylamino]prop-1-ynyl]-2-fluoro-phenoxy]propyl]thiazole-4-carboxylic acid], for which the half-maximal inhibitory concentration (IC50) is 0.95 nM under setting [1], 2 nM under setting [2] and 1.48 nM under setting [3].

Turning to `Cc1ccc2nc(Nc3nnc4c(c3C)CCCN4c3ccc(-c4cnn(CC56CC7(C)CC(C)(C5)CC(OCCN5CCCC5)(C7)C6)c4C)c(C(=O)O)n3)sc2c1` [P64, 3-[1-[[3,5-dimethyl-7-(2-pyrrolidin-1-ylethoxy)-1-adamantyl]methyl]-5-methyl-pyrazol-4-yl]-6-[4-methyl-3-[(6-methyl-1,3-benzothiazol-2-yl)amino]-6,7-dihydro-5H-pyrido[2,3-c]pyridazin-8-yl]pyridine-2-carboxylic acid], the concentration for half-maximal inhibition (IC50) under setting [1] was 1.6 nM, the IC50 under setting [2] was found to be 2.9 nM and the IC50 under setting [3] amounted to 2.25 nM.

For the compound `Cc1c(Nc2nc3ccccc3s2)nnc2c1CCCN2c1ccc(-c2cnn(CC34CC5(C)CC(C)(CC(CCCN(C)CCC(=O)O)(C5)C3)C4)c2C)c(C(=O)O)n1` [P56, 6-[3-(1,3-benzothiazol-2-ylamino)-4-methyl-6,7-dihydro-5H-pyrido[2,3-c]pyridazin-8-yl]-3-[1-[[3-[3-[2-carboxyethyl(methyl)amino]propyl]-5,7-dimethyl-1-adamantyl]methyl]-5-methyl-pyrazol-4-yl]pyridine-2-carboxylic acid], the 50% inhibitory concentration (IC50) is 13.9 nM under setting [1], 2.95 nM under setting [2] and 8.43 nM under setting [3].

On to `Cc1c(Nc2nc3ccccc3s2)nnc2c1CCCN2c1ccc(-c2cnn(CC34CC5(C)CC(C)(C3)CC(OCCN3CCCC3)(C5)C4)c2C)c(C(=O)NC(C)C)n1` [P75, 6-[3-(1,3-benzothiazol-2-ylamino)-4-methyl-6,7-dihydro-5H-pyrido[2,3-c]pyridazin-8-yl]-3-[1-[[3,5-dimethyl-7-(2-pyrrolidin-1-ylethoxy)-1-adamantyl]methyl]-5-methyl-pyrazol-4-yl]-N-isopropyl-pyridine-2-carboxamide], for which the IC50 under setting [1] came out at 2.3 nM, the IC50 under setting [2] is 3.03 nM and the half-inhibitory concentration (IC50) under setting [3] was found to be 2.67 nM.
